Reference: ChEMBL document CHEMBL5030535, “Conjugates Derived from Lapatinib Derivatives with Cancer Cell Stemness Inhibitors Effectively Reversed Drug Resistance in Triple-Negative Breast Cancer” (J Med Chem, 2021)
Calls of active or inactive are those of the source. The rule behind the calls is not given here.

What was measured:
[1] = test system: MDA-MB-231; test: Antiproliferative activity against human drug tolerant MDA-MB-231/lapatinib cells assessed as inhibition of cell growth in measured after 72 hrs by MTT assay; assay type: functional, cell-based; details: MDA-MB-231, 72 h
[2] = test system: MDA-MB-231; test: Antiproliferative activity against human MDA-MB-231 cells assessed as inhibition of cell growth measured after 72 hrs by MTT assay; assay type: functional, cell-based; details: MDA-MB-231, 72 h
[3] = test system: MCF7; test: Antiproliferative activity against human MCF7 cells assessed as inhibition of cell growth measured after 72 hrs by MTT assay; assay type: functional, cell-based; details: MCF7, 72 h
[4] = Resistant factor, ratio of IC50 for antiproliferative activity against drug-tolerant human MDA-MB-231 cells to IC50 for human MDA-MB-231 cells; assay type: functional
[5] = test system: HUVEC; test: Antiproliferative activity against human HUVEC cells assessed as inhibition of cell growth in measured after 72 hrs by MTT assay; assay type: cell-based
[6] = Octanol/water partition coefficient, log P of the compound by shake flask method based thermodynamic solubility assay; assay type: physicochemical
[7] = test system: MDA-MB-231; test: Cell cycle arrest in human drug-tolerant MDA-MB-231/lapatinib cells assessed as increase in accumulation at S phase at 20 uM incubated for 24 hrs […]; assay type: functional, cell-based
[8] = test system: MDA-MB-231; test: Inhibition of cell stemness in drug-tolerant human MDA-MB-231/lapatinib cells assessed as inhibition of Notch expression at 20 uM after 24 hrs by flow cytometry; assay type: functional, cell-based
[9] = test system: MDA-MB-231; test: Inhibition of Wnt/beta-Catenin signaling in drug-tolerant human MDA-MB-231/lapatinib cells assessed as reduction in p-GSK3beta level at 20 uM incubated for 24 hrs by Western blot analysis
[10] = target: T1, Epidermal growth factor receptor (Homo sapiens, UniProt P00533); test: Inhibition of human EGFR in human MDA-MB-231 cells assessed as inhibition of phosphorylation ERK1/2 at T202/Y204 of measured after 24 hrs by Western blot analysis; assay type: cell-based; details: dose 5-20 µM
[11] = test system: MDA-MB-231; test: Potency index, ratio of lapatinib IC50 to test compound IC50 for induction of apoptosis in drug-tolerant human MDA-MB-231 cells/lapatinib cells assessed as apoptotic rate at 20 uM measured after 24 hrs by flow cytometry; assay type: functional
[12] = target: T1, Epidermal growth factor receptor; test: Inhibition of exogenous EGFR (unknown origin)
[13] = test system: MDA-MB-231; test: Antiproliferative activity against drug-tolerant human MDA-MB-231/lapatinib cells assessed as CD44-positive cells measured after 24 hrs by MTT assay; assay type: functional, cell-based; details: MDA-MB-231, 24 h
[14] = test system: MDA-MB-231; test: Cell cycle arrest in human MDA-MB-231 cells assessed as increase in accumulation at S phase at 20 uM incubated for 24 hrs by PI staining based flow cytometry; assay type: functional
[15] = test system: MDA-MB-231; test: Inhibition of cell stemness in drug-tolerant human MDA-MB-231/lapatinib cells assessed as inhibition of Jagged expression at 20 uM after 24 hrs by flow cytometry; assay type: functional, cell-based
[16] = test system: MDA-MB-231; test: Inhibition of cell invasion in human MDA-MB-231/lapatinib cells at 20 uM; assay type: functional
[17] = test system: MDA-MB-231; test: Inhibition of cell stemness in human drug-tolerant MDA-MB-231/lapatinib cells assessed as inhibition of Kif4 expression at 20 uM after 24 hrs by qRT-PCR analysis; assay type: functional, cell-based
[18] = test system: MDA-MB-231; test: Inhibition of Wnt/beta-Catenin signaling in drug-tolerant human MDA-MB-231/lapatinib cells assessed as reduction in MMP7 mRNA level at 20 uM incubated for 24 hrs by qRT-PCR analysis; assay type: tissue-based
[19] = test system: MDA-MB-231; test: Inhibition of cell migration in human drug-tolerant MDA-MB-231/lapatinib cells at 20 uM; assay type: functional
[20] = target: T1, Epidermal growth factor receptor; test: Inhibition of human EGFR phosphorylation in human MDA-MB-231 cells measured after 24 hrs by Western blot analysis; assay type: cell-based; details: dose 5-20 µM
[21] = test system: MDA-MB-231; test: Induction apoptosis in MDA-MB-231/ lapatinib cells assessed as apoptotic cells at 20 uM measured after 24 hrs by propidium iodide staining based flow cytometric analysis; assay type: functional, cell-based; details: Homo sapiens
[22] = target: T1, Epidermal growth factor receptor; test: Inhibition of human EGFR in human drug-tolerant MDA-MB-231/lapatinib cells assessed as inhibition of phosphorylation Akt1/2/3 at Ser473 of measured after 24 hrs by Western blot analysis; details: dose 5-20 µM
[23] = test system: MDA-MB-231; test: Cell cycle arrest in human drug-tolerant MDA-MB-231/lapatinib cells assessed as accumulation at G2-M phase at 20 uM incubated for 24 hrs by PI staining based flow cytometry; assay type: functional
[24] = test system: MDA-MB-231; test: Inhibition of Wnt/beta-Catenin signaling in drug-tolerant human MDA-MB-231/lapatinib cells assessed as increase in nuclear expression of p-beta-catenin level at 20 uM incubated for 24 hrs by Western blot analysis
[25] = test system: MDA-MB-231; test: Inhibition of Wnt/beta-Catenin signaling in drug-tolerant human MDA-MB-231/lapatinib cells assessed as reduction in cyclin D1 mRNA level at 20 uM incubated for 24 hrs by qRT-PCR analysis
[26] = test system: MDA-MB-231; test: Inhibition of cell stemness in human drug-tolerant MDA-MB-231/lapatinib cells assessed as inhibition of OCT4 expression at 20 uM after 24 hrs by qRT-PCR analysis; assay type: functional, cell-based
[27] = test system: MDA-MB-231; test: Inhibition of Wnt/beta-Catenin signaling in drug-tolerant human MDA-MB-231/lapatinib cells assessed as reduction in S100A4 mRNA level at 20 uM incubated for 24 hrs by qRT-PCR analysis
[28] = test system: MDA-MB-231; test: Induction of apoptosis in drug-tolerant human MDA-MB-231 cells/lapatinib cells assessed as apoptotic rate at 20 uM measured after 24 hrs by flow cytometry; assay type: functional
[29] = target: T2, Aldehyde dehydrogenase 1A1 (Homo sapiens, UniProt P00352); test: Inhibition of ALDH1A1 in human drug-tolerant MDA-MB-231/lapatinib cells assessed as after 24 hrs
T2 sequence (P00352 whole entry): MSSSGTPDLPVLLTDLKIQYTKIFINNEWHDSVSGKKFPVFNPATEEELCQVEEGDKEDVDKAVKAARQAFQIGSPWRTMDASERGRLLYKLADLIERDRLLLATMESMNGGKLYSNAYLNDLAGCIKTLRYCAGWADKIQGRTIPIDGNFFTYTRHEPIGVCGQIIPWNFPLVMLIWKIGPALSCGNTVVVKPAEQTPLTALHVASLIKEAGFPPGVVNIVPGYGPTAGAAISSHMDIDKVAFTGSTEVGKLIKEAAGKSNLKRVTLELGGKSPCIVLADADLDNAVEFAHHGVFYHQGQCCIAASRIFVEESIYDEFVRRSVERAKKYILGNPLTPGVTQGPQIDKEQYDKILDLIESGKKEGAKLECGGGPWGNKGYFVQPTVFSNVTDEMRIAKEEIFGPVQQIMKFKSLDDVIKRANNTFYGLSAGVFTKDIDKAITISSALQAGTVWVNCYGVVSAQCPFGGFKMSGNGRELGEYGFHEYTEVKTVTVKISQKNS

[30] = test system: MDA-MB-231; test: Antitumor activity against drug-tolerant human MDA-MB-231/lapatinib cells injected in BALB/c mouse assessed as tumor development measured after 8 weeks; assay type: functional, cell-based
[31] = test system: MDA-MB-231; test: Inhibition of Wnt/beta-Catenin signaling in drug-tolerant human MDA-MB-231/lapatinib cells assessed as reduction in beta-catenin level at 20 uM incubated for 24 hrs by Western blot analysis
[32] = test system: MDA-MB-231; test: Inhibition of colony formation in human drug-tolerant MDA-MB-231/lapatinib cells at 5 uM measured after 24 hrs; assay type: functional
[33] = test system: MDA-MB-231; test: Cell cycle arrest in human MDA-MB-231 cells assessed as accumulation at G2-M phase at 20 uM incubated for 24 hrs by PI staining based flow cytometry; assay type: functional
[34] = test system: MDA-MB-231; test: Inhibition of cell stemness in human drug-tolerant MDA-MB-231/lapatinib cells assessed as inhibition of CD44+/CD24- expression at 20 uM after 24 hrs by flow cytometry analysis; assay type: functional
[35] = test system: MDA-MB-231; test: Inhibition of Wnt/beta-Catenin signaling in drug-tolerant human MDA-MB-231/lapatinib cells assessed as reduction in c-Myc mRNA level at 20 uM incubated for 24 hrs by qRT-PCR analysis
[36] = target: T1, Epidermal growth factor receptor; test: Inhibition of human EGFR in human MDA-MB-231 cells assessed as inhibition of phosphorylation Akt1/2/3 at Ser473 of measured after 24 hrs by Western blot analysis; assay type: cell-based; details: dose 5-20 µM
[37] = target: T1, Epidermal growth factor receptor; test: Inhibition of human EGFR phosphorylation in human drug-tolerant MDA-MB-231/lapatinib cells measured after 24 hrs by Western blot analysis; details: dose 5-20 µM
[38] = target: T1, Epidermal growth factor receptor; test: Inhibition of human EGFR in human drug-tolerant MDA-MB-231/lapatinib cells assessed as inhibition of phosphorylation ERK1/2 at T202/Y204 of measured after 24 hrs by Western blot analysis; details: dose 5-20 µM
[39] = test system: MDA-MB-231; test: Inhibition of cell stemness in human drug-tolerant MDA-MB-231/lapatinib cells assessed as inhibition of SOX-2 expression at 20 uM after 24 hrs by qRT-PCR analysis; assay type: functional, cell-based
[40] = test system: MDA-MB-231; test: Antiproliferative activity against drug-tolerant human MDA-MB-231/lapatinib cells assessed as CD44+/CD24- cells measured at 20 uM after 24 hrs by MTT assay; assay type: functional

T1 sequence (P00533 whole entry): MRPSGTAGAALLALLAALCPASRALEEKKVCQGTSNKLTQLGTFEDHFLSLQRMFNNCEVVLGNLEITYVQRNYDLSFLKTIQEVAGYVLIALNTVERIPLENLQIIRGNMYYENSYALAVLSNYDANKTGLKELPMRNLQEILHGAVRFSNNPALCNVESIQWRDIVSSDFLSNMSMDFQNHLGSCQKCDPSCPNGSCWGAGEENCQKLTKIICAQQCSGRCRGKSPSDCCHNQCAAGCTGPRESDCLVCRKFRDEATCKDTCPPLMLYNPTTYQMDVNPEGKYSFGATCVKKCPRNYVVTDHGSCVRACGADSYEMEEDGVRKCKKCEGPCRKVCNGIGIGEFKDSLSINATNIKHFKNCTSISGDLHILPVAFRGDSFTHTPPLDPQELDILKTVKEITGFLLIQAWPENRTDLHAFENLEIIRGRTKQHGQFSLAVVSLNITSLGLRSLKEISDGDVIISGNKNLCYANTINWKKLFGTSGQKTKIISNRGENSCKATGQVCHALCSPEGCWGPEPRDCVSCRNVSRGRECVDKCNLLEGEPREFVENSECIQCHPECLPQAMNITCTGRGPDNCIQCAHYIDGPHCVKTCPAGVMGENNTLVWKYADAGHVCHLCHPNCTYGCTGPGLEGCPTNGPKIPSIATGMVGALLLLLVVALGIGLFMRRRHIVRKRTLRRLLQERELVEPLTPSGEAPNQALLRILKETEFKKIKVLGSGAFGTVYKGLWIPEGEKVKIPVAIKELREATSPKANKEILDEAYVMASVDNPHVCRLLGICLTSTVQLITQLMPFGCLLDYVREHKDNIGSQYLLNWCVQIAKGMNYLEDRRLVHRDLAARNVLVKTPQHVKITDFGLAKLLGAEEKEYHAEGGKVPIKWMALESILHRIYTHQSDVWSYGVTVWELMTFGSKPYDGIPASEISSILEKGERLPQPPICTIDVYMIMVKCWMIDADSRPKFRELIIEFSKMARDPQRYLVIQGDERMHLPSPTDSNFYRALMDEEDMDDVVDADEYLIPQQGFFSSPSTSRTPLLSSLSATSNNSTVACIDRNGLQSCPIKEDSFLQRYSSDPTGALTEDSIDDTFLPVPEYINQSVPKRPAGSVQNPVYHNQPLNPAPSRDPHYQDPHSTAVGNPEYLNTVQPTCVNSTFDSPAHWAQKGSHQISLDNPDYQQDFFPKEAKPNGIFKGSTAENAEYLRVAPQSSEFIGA

Which results are given for `OCCN1CCN(CCCN2c3ccccc3Sc3ccc(C(F)(F)F)cc32)CC1` [FLUPHENAZINE]?
IC50 [1]: 18.6 µM; IC50 [2]: 16.7 µM; IC50 [3]: 24.6 µM; Ratio IC50 [4]: 0.86; IC50 [5]: 38 µM

What does the source list for `CS(=O)(=O)CCN(Cc1ccc(-c2ccc3ncnc(Nc4ccc(OCc5cccc(F)c5)c(Cl)c4)c3c2)o1)C(=O)CCC(=O)OCCN1CCN(CCCN2c3ccccc3Sc3ccc(C(F)(F)F)cc32)CC1`?
IC50 [1]: 3.42 µM; IC50 [2]: 2.98 µM; IC50 [3]: 6.38 µM; Ratio IC50 [4]: 1.17; IC50 [5]: 39.6 µM

For `CC(OC(=O)CCC(=O)N(CCS(C)(=O)=O)Cc1ccc(-c2ccc3ncnc(Nc4ccc(OCc5cccc(F)c5)c(Cl)c4)c3c2)o1)c1cc2c(o1)C(=O)c1ccccc1C2=O` (stereo not given), which IC50 [1] is on record?
Its IC50 is 5.82 µM.

And the IC50 [2]?
Its IC50 is 3.61 µM.

And the IC50 [3]?
The IC50 was 3.97 µM.

And the “Ratio IC50” value [4]?
Its value is 1.62.

And the IC50 [5]?
The IC50 was 56.6 µM.

What does the source list for `CS(=O)(=O)CCN(Cc1ccc(-c2ccc3ncnc(Nc4ccc(OCc5cccc(F)c5)c(Cl)c4)c3c2)o1)C(=O)CCC(=O)OCCN1CCN(CCCN2c3ccccc3Sc3ccc(Cl)cc32)CC1`?
logP [6]: 2.49; Activity [7]: Active; inhibition [8]: Active; inhibition [9]: Active; inhibition [10]: Active; Ratio IC50 [11]: 2.23; IC50 [12]: 0.0105 µM; IC50 [13]: 0.56 µM; Activity [14]: Active; IC50 [1]: 1.03 µM; IC50 [2]: 1.54 µM; inhibition [15]: Active; IC50 [3]: 3.62 µM; inhibition at 20 µM [16]: 56.3%; inhibition [17]: Active; inhibition [18]: Active; inhibition at 20 µM [19]: 13.2%; inhibition [20]: Dose-Dependent Effect; Activity [21]: Active; inhibition [22]: Dose-Dependent Effect; Activity [23]: Active; inhibition [24]: Active; inhibition [25]: Active; inhibition [26]: Active; inhibition [27]: Active; Ratio IC50 [4]: 0.67; Activity [28]: 72%; IC50 [29]: 0.0864 µM; Activity [30]: Active; inhibition [31]: Active; inhibition at 5 µM [32]: 10.9%; Activity [33]: Active; inhibition at 20 µM [34]: 0.56%; inhibition [35]: Active; inhibition [36]: Active; IC50 [5]: 89.2 µM; inhibition [37]: Dose-Dependent Effect; inhibition [38]: Dose-Dependent Effect; inhibition [39]: Active; inhibition at 20 µM [40]: 72.9%

With `CS(=O)(=O)CCN(Cc1ccc(-c2ccc3ncnc(Nc4ccc(OCc5cccc(F)c5)c(Cl)c4)c3c2)o1)C(=O)CCCC(=O)OCCN1CCN(CCCN2c3ccccc3Sc3ccc(C(F)(F)F)cc32)CC1` as the compound, how does the IC50 [1] read?
The IC50 was 7.12 µM.

What about the IC50 [2] of the same compound?
Its IC50 is 6.58 µM.

What about the IC50 [3] of the same compound?
The IC50 was 9.16 µM.

And the “Ratio IC50” value [4]?
Its value is 1.08.

What about the IC50 [5] of the same compound?
Its IC50 is 43.4 µM.
